Data reported in US9254334B2, “Polyamine derivatives” (CLSN Laboratories, Inc., priority 2009, dated 2016).

Assays:
VEGF transcript = VEGF transcript knockdown in subcutaneous tumors after intratumoral injection of formulated siVEGF; type: in vivo, mice; settings: VEGF siRNA 5:1 N:P, 0.3 mg/mL, 30 μl intratumoral, 48 h after second injection
Protocol: (§1) In this example tumors were implanted into the hind flanks of […] by injecting 5×10^5 squamous cell carcinoma cells. Tumors were allowed to grow until they reached a size of […]. Tumors were then injected with a commercially available siRNA targeting VEGF that was formulated with dioleoyl monoamine at a 5:1 N:P ratio or with a similarly formulated non-silencing control siRNA. The final concentration of siRNA was 0.3 mg/mL. A total of 30 μl of the formulated siRNA solution was injected into tumors and injections were repeated every 3-4 days for a total of 6 injections. The tumors from some animals were harvested 48 hours after the second formulated siRNA injection for transcript analysis.

[1] = test system: Caveolin-1 (Cav-1) transcript; experiment: Caveolin-1 transcript knockdown in lung and liver after single iv injection of formulated siRNA (qRTPCR); type: in vivo, mice; settings: 100 μg siRNA iv, 10:1 ratio, 48 h, normalized to β-actin, vs non-targeting siRNA control
Protocol: A total of 100 μg siRNA is injected in a final volume of 200 μL (0.5 mg/mL). […] Results (FIG. 3) indicate a significant decrease in target specific Cav-1 transcript levels in both lungs (76% knockdown) and livers (62% knockdown). For each group, n=5.

[2] = Controlled release of complexed Cav-1 siRNA from crosslinked alginate gel; type: physicochemical
Protocol: siRNA complexed with dioleoyl monoamine is formulated as described in Example 39 containing 50 μg Cav-1 siRNA and 1.4 μg dioleoyl monoamine in a volume of 50 μL. Sodium alginate (Type A) is dissolved in water to give a 2% solution. An alginate solution (100 μL) is added to a single well of a 96-well plate followed by 50 μL of the dioleoyl monoamine/Cav-siRNA solution. After thorough mixing, 50 μL of a 0.68 M CaCl2 solution is added to the previous mixture to crosslink the gel. One hundred μL of water or 0.1 M EDTA (which serves to break down the gel by complexing the Ca^2+ ions) is then added to ensure complete submersion of the gel in aqueous solution. At the prescribed time points, the supernatants are removed (200 μL) and replaced with fresh 200 μL water or 0.1 M EDTA. After 84 hours, all collected samples are assayed for Cav-1 siRNA content using qRT-PCR. The siRNA amounts collected at each time point are summed in order to determine amount released over time. In samples that have the addition of EDTA, 100% of the loaded dioleoyl monoamine formulated siRNA is released after 84 hours.

VEGF protein = experiment: In vitro transfection of simVEGF siRNA complexes, supernatant mVEGF protein knockdown; type: cell-based, murine; settings: SCCVII cells, 0.5 μg complexed simVEGF siRNA, 6 h + 40 h
Protocol: (§2) The transfection activity of siRNA and dioleoyl monoamine delivery reagent conjugate complexes is determined in vitro. Transfection complexes containing simVEGF siRNA construct are prepared by methods previously described in Example 9. SCCVII cells (0.5×10^5 cells/well) are seeded into 24-well tissue culture plates in 10% FBS. Each well is incubated for 6 hours with 0.5 μg of complexed siRNA in a total volume of 250 μL of DMEM. When the incubation period is concluded, 250 μL of DMEM supplemented with 20% FBS is added to the transfected cells and incubated further for another 40 hours. At the end of the incubation period, supernatant mVEGF protein determinations are made.
as §2, with “siRNA complexes with” for “siRNA and”, “monoamine (Example 3) or methyl-dioleoyl monoamine (Example 3A)” for “monoamine”, “delivery reagents” for “delivery reagent conjugate complexes”, “previously described.” for “previously described in Example 9.”, “are made as described above.” for “are made.”

[3] = test system: squamous cell carcinoma tumors; experiment: Tumor growth inhibition and survival after intratumoral formulated VEGF siRNA; type: in vivo, mice
Protocol: as §1

[4] = one week after last of 6 intratumoral injections

CCCCCCCC/C=C\CCCCCCCC(=O)NCCN(CCN)CCNC(=O)CCCCCCC/C=C\CCCCCCCC [dioleoyl monoamine, N,N′-dioleoyl tris(aminoethyl)amine]
decrease in VEGF transcript relative to the non-silencing control group (VEGF transcript): 32%
Cav-1 transcript knockdown, livers [1]: 62%
Cav-1 transcript knockdown, lungs [1]: 76%
loaded siRNA released from alginate gel ([2]; with 0.1 M EDTA, after 84 hours): 100%
loaded siRNA released from alginate gel ([2]; without EDTA (water), by 84 hours): < 20%
knockdown of VEGF protein (VEGF protein): ~95%
improvement in median survival relative to non-silencing control or untreated groups ([3]; VEGF siRNA intratumoral, 6 injections): 13%
decrease in tumor volume relative to non-silencing siRNA [3, 4]: 31%
decrease in tumor volume relative to untreated control animals [3, 4]: 57%
